According to ChEMBL document CHEMBL1148472, “Jatrophane diterpenes as modulators of multidrug resistance. Advances of structure-activity relationships and discovery of the potent lead pepluanin A” (J Med Chem, 2004):

Molecular target: ATP-dependent translocase ABCB1 (Homo sapiens, UniProt P08183)
Test: TP_TRANSPORTER: cell accumulation of daunomycin in human K562/R7 leukemic cells
Type: functional, cell-based

ATP-dependent translocase ABCB1, sequence (P08183 whole entry): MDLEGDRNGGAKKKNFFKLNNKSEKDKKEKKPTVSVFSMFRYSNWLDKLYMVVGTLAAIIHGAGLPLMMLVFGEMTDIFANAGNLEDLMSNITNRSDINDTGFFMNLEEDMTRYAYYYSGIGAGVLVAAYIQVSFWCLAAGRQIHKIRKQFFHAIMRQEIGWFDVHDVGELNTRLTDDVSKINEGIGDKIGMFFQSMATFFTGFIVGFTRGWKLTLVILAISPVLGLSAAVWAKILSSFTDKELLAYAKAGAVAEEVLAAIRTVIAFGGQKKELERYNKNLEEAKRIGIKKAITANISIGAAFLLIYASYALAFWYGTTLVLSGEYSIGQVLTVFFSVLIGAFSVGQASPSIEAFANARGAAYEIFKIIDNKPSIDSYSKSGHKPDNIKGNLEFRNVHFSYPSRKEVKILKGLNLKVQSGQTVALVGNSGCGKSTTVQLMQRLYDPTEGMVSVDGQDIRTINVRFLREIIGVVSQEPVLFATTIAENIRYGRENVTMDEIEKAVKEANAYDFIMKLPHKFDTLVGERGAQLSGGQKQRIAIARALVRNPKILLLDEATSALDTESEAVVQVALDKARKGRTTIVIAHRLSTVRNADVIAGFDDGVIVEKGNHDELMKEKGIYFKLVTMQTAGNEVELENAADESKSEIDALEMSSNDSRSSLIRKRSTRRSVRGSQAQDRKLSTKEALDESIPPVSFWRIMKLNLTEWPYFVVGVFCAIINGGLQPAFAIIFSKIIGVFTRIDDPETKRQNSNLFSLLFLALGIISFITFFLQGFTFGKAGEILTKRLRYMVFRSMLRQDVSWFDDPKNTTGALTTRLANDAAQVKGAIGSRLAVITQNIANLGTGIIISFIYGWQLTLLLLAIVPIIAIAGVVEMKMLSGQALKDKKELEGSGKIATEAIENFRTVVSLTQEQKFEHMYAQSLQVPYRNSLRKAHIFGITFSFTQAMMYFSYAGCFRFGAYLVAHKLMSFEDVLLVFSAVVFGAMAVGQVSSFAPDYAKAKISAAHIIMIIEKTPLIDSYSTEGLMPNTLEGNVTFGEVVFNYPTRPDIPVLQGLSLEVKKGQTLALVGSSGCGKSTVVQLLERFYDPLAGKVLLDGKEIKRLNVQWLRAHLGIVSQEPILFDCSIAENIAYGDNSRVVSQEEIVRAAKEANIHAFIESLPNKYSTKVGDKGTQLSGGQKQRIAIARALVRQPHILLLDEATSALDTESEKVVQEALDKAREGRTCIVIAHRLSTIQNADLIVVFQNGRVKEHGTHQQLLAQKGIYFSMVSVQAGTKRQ

C=C1[C@@H](OC(C)=O)[C@@H](OC(C)=O)[C@@H](OC(=O)c2cccnc2)C(C)(C)/C=C/[C@H](C)[C@H](OC(C)=O)[C@@]2(O)C[C@@](C)(OC(C)=O)[C@H](OC(=O)c3ccccc3)[C@@H]2[C@H]1OC(C)=O [PEPLUANIN]
Activity: inhibitor [+]
